One assay has as its target T1, Human GPR120 short form (Homo sapiens, UniProt Q5NUL3).
T1 construct: expressed in transfected cells
T1 sequence (Q5NUL3 1-361): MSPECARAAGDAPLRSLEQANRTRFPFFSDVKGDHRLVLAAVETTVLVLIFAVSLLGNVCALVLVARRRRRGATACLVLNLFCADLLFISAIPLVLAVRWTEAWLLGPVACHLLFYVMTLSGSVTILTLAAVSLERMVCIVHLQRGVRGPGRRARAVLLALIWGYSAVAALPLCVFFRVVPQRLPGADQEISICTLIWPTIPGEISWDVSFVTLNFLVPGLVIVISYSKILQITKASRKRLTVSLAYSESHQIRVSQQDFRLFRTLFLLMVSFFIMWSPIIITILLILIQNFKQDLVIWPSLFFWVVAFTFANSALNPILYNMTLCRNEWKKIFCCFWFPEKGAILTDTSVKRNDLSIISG
Kind of assay: Human GPR120 calcium flux assay, Procedure Calcium B. Type of assay: cell-based. Conditions: HEK-293 cells expressing human GPR120 short form, 4200 cells/well, FLIPR.

Assay [1] has as its target T2, short form of the GPR120 receptor (Homo sapiens, UniProt Q5NUL3).
T2 construct: host or cells: PathHunter CHO-K1 GPR120S β-Arrestin Cell Line
Description: Human GPR120 DiscoveRx PathHunter β-Arrestin assay, Procedure β-arrestin B. The class given is cell-based. Conditions: PathHunter CHO-K1 GPR120S β-Arrestin cell line, 5000 cells/well. The text has this:
The binding of an agonist (medium/long chain fatty acids or small molecule agonists) to the G-protein-coupled receptor GPR120 activates phospholipase C, leading to release of intracellular Ca^+2 through the generation of inositol 1,4,5-trisphosphate (InsP3 or IP3). GPR120 activation can also trigger intracellular signaling via recruitment of β-Arrestin. In the present method, agonist-induced activation of the human GPR120 receptor is monitored through the use of PathHunter CHO-K1 GPR120 β-Arrestin Cell Line engineered by DiscoveRx, as detailed below. The cell lines are designed to co-express both the ProLink/Enzyme Donor (PK)-tagged GPCR and the Enzyme […] (EA)-tagged Beta-Arrestin fusion proteins. Upon GPR120 receptor stimulation/activation, the EA-tagged β-Arrestin portion is translocated to the tagged receptor, where the two enzyme fragments are brought within close proximity. Under these conditions, these fragments can interact and form an active Beta-gal enzyme complex through Enzyme Fragment Complementation (EFC). This active Beta-gal complex can enzymatically hydrolyse the substrate to produce a detectable light signal; therefore, activation as a function of agonist concentration can be expressed as an EC50 value to determine relative compound activities. This in vitro assay therefore serves to assess compound agonist activity of the GPR120.
In Procedure β-arrestin B the cells used were PathHunter CHO-K1 GPR120S β-Arrestin Cell Line, expressing the short form of the GPR120 receptor (Accession #NM_181745), with 5000 cells/well.
The selected CHO-K1 GPR120 β-Arrestin cells were cultured in Ham's F12 media supplemented with 10% fetal bovine serum (FBS), 1% Glutamine, 1×p/s, 800 μg/ml G418 and 300 μg/ml Hygromycin B (for selection). Cell stocks were maintained and grown in a sub-confluent state using standard cell culture procedures. The day before the experiment, the cells were harvested with non-enzymatic cell dissociation buffer and re-suspended in complete growth media at the desired concentration. A Corning 384-plate was then seeded with the proper number of cells in a volume of 25 μL, per well. The seeded plates were incubated overnight at 37° C.
On the day of the experiment, the Assay Buffer containing (a) HBSS with Ca^++ and Mg^++, (b) 20 mM HEPES, and (c) 0.1% BSA stabilizer (pH 7.4) was prepared. The growth medium was gently removed from the cell plates and 20 μL of Assay Buffer added to each well. The plate was then incubated at 37° C. for 60 mins. Test compounds were serially diluted in Assay Buffer to desired concentrations (more particularly, to one or more of the following μM concentrations: 25 μM, 12.5 μM, 6.25 μM, 3.125 μM, 1.562 μM, 0.781 μM, 0.391 μM, 0.195 μM, 0.098 μM, 0.049 μM, 0.024 μM, 0.012 μM). Five μl of compound dilution was then added to each well and the plate incubated at 37° C. for 90 mins. The detection reagents were prepared according to the manufacture's instruction. Twelve μL of the detection reagents were added to each well and the plate incubated at room temperature for 60 mins.
The plates were read on an EnVision instrument, using Protocol name: Luminescence, Plate type: 384 Costar, Measurement height: 3 mm, Measurement time: 1 s, Aperture: 384 Plate aperture. The % activity relative to the positive control was calculated using the following equation:
The % Activity values were plotted versus the concentration of test compound and fitted to a sigmoidal dose-response curve with a Hill slope=1 (fixed value) using nonlinear regression with GraphPad Prism 5.0 to calculate the EC50 values. The Fitting Equation was: Y=Bottom+(Top−Bottom)/(1+10^((LogEC50−X)*HillSlope)), where X is the log of the concentration and Y is the response.

The term EC50 denotes the concentration giving half of the maximal effect.

T2 sequence (P32121 whole entry partner, one chain of several): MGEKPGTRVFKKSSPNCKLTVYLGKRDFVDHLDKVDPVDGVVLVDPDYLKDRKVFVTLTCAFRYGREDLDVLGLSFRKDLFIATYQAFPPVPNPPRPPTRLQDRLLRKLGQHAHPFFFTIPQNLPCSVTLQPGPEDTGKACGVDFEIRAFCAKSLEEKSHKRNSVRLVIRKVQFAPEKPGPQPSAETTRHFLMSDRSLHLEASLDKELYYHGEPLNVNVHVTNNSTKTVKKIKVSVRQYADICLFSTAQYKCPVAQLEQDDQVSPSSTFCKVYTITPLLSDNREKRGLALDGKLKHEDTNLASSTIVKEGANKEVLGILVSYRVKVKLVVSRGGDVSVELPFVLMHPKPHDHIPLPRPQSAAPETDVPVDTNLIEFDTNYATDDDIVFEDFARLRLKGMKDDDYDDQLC

As for `CC(Cc1cc(F)c(OCc2c(C(F)(F)F)ccn2-c2ccc(Cl)cc2)c(F)c1)C(=O)O` (centres unmarked) [Compound 59, 3-(4-[[1-(4-chlorophenyl)-3-(trifluoromethyl)-1H-pyrrol-2-yl]methoxy]-3,5-difluorophenyl)-2-methylpropanoic acid], the EC50 was 290 nM on Human GPR120 short form and 417 nM in assay [1].

Take `Cc1c(CCC(=O)O)ccc(OCc2c(C(F)(F)F)ccn2-c2ccc(F)c(F)c2)c1C` [Compound 78, 3-(4-{[1-(3,4-Difluorophenyl)-3-(trifluoromethyl)-1H-pyrrol-2-yl]methoxy}-2,3-dimethylphenyl)propanoic acid]: the EC50 on Human GPR120 short form stood at 305 nM; in assay [1], 1420 nM.

Turning to `O=C(O)CCc1cc(F)c(OCc2c(C(F)(F)F)ccn2-c2ccc(F)c(F)c2)c(F)c1` [Compound 76, 3-(4-{[1-(3,4-Difluorophenyl)-3-(trifluoromethyl)-1H-pyrrol-2-yl]methoxy}-3,5-difluorophenyl)propanoic acid], the values for the concentration for a half-maximal effect (EC50) (on Human GPR120 short form; in assay [1]) were 175 nM and 1120 nM, respectively.

Regarding `O=C(O)CCc1cc(F)c(OCc2c(C(F)(F)F)ccn2-c2ccc(F)cc2F)c(F)c1` [Compound 75, 3-(4-{[1-(2,4-Difluorophenyl)-3-(trifluoromethyl)-1H-pyrrol-2-yl]methoxy}-3,5-difluorophenyl)propanoic acid], the results for the EC50 (on Human GPR120 short form; in assay [1]) were 156 nM and 577 nM, respectively.

The values are drawn from US8912227B1, “Bicyclic pyrrole derivatives useful as agonists of GPR120” (Janssen Pharmaceutica NV, priority 2014, dated 2014).
